How the values were obtained:
Assay type in all cases: cell-based
human TLR8 = target: T1, human TLR8 (Homo sapiens, UniProt Q9NR97); test: TLR8 inhibition reporter assay (HEK-Blue SEAP reporter); settings: HEK-Blue cells overexpressing human TLR8; R848 15.9 μM; 22 hour incubation
T1 construct: host or cells: HEK-Blue cells
T1 sequence (Q9NR97 27-1041): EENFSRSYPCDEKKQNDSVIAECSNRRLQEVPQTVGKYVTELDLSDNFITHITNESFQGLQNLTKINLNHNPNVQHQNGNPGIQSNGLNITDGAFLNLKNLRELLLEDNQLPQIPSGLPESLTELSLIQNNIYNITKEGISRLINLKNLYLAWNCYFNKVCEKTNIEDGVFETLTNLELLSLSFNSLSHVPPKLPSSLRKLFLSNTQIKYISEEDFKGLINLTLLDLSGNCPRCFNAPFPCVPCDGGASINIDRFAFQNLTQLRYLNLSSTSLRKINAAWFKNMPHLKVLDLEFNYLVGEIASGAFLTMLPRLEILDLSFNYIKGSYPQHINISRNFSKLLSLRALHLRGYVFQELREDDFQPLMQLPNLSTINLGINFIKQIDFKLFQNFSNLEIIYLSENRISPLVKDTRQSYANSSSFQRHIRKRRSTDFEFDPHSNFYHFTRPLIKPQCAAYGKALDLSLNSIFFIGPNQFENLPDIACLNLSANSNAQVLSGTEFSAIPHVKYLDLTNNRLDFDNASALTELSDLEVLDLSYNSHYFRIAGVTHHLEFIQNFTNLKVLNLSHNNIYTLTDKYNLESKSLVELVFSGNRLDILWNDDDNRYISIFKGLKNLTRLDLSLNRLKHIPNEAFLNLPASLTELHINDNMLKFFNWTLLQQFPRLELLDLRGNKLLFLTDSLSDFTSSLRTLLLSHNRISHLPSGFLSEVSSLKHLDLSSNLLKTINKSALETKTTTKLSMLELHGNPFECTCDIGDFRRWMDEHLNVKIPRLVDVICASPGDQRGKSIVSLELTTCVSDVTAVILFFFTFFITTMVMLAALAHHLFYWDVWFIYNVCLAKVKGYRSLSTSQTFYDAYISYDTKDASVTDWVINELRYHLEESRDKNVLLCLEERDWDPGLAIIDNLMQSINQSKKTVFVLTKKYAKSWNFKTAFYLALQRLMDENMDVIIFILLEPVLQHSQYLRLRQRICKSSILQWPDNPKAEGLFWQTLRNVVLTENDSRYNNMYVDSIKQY
Procedure: TLR7/8/9 Inhibition Reporter Assays
HEK-Blue™-cells (Invivogen) overexpressing human TLR7, TLR8 or TLR9 receptors were used for screening inhibitors of these receptors using an inducible SEAP (secreted embryonic alkaline phosphatase) reporter gene under the control of the IFN-β minimal promoter fused to five NF-κB and AP-1-binding sites. Briefly, cells are seeded into Greiner 384 well plates (15000 cells per well for TLR7, 20,000 for TLR8 and 25,000 for TLR9) and then treated with test compounds in DMSO to yield a final dose response concentration range of 0.05 nM-50 μM. After a 30 minute compound pre-treatment at room temperature, the cells are then stimulated with a TLR7 ligand (gardiquimod at a final concentration of 7.5 μM), TLR8 ligand (R848 at a final concentration of 15.9 μM) or TLR9 ligand (ODN2006 at a final concentration of 5 nM) to activate NF-κB and AP-1 which induce the production of SEAP. After a 22 hour incubation at 37° C., 5% CO2, SEAP levels are determined with the addition of HEK-Blue™ Detection reagent (Invivogen), a cell culture medium that allows for detection of SEAP, according to manufacturer's specifications. The percent inhibition is determined as the % reduction in the HEK-Blue signal present in wells treated with agonist plus DMSO alone compared to wells treated with a known inhibitor.

human TLR9 = target: T2, human TLR9 (Homo sapiens, UniProt Q9NR96); test: TLR9 inhibition reporter assay (HEK-Blue SEAP reporter); settings: HEK-Blue cells overexpressing human TLR9; ODN2006 5 nM; 22 hour incubation
T2 construct: host or cells: HEK-Blue cells
T2 sequence (Q9NR96 26-1032): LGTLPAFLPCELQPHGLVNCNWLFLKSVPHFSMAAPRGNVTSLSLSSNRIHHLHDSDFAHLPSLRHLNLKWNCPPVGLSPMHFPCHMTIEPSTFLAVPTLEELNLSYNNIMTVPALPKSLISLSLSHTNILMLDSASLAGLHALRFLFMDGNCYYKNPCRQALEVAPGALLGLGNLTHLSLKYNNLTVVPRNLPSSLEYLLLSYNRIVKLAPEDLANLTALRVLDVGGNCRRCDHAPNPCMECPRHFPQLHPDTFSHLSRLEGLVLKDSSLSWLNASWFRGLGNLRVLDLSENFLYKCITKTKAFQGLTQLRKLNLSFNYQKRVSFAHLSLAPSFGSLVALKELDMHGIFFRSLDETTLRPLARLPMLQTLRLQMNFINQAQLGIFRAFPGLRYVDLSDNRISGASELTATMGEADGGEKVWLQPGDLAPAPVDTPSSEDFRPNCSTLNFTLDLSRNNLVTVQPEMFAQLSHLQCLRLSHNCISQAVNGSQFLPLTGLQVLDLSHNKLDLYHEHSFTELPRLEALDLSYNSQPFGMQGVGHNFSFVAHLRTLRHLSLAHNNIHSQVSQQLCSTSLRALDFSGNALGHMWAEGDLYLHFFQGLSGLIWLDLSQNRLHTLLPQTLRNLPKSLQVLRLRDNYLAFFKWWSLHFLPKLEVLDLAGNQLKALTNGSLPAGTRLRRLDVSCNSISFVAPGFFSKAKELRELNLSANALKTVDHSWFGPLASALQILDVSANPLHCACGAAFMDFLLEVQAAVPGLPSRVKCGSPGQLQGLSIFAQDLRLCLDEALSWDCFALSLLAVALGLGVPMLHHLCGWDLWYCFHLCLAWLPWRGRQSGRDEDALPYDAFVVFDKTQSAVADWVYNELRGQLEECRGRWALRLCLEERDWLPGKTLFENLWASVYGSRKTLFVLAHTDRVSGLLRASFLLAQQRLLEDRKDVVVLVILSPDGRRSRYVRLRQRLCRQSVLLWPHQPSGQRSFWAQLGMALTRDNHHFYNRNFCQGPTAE
In short: (§1)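 Agonists used: gardiquimod 7.5 μM (TLR7), R848 15.9 μM (TLR8), ODN2006 5 nM (TLR9), added after 30 min room-temperature compound pre-treatment (0.05 nM–50 μM) of receptor-overexpressing HEK-Blue cells. SEAP reporter (NF-κB/AP-1 driven) read after 22 h at 37 °C; inhibition scaled between agonist+DMSO and reference-inhibitor wells.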

human TLR7 = target: T3, human TLR7 (Homo sapiens, UniProt Q9NYK1); test: TLR7 inhibition reporter assay (HEK-Blue SEAP reporter); settings: HEK-Blue cells overexpressing human TLR7; gardiquimod 7.5 μM; 22 hour incubation
T3 construct: host or cells: HEK-Blue cells
T3 sequence (Q9NYK1 27-1049): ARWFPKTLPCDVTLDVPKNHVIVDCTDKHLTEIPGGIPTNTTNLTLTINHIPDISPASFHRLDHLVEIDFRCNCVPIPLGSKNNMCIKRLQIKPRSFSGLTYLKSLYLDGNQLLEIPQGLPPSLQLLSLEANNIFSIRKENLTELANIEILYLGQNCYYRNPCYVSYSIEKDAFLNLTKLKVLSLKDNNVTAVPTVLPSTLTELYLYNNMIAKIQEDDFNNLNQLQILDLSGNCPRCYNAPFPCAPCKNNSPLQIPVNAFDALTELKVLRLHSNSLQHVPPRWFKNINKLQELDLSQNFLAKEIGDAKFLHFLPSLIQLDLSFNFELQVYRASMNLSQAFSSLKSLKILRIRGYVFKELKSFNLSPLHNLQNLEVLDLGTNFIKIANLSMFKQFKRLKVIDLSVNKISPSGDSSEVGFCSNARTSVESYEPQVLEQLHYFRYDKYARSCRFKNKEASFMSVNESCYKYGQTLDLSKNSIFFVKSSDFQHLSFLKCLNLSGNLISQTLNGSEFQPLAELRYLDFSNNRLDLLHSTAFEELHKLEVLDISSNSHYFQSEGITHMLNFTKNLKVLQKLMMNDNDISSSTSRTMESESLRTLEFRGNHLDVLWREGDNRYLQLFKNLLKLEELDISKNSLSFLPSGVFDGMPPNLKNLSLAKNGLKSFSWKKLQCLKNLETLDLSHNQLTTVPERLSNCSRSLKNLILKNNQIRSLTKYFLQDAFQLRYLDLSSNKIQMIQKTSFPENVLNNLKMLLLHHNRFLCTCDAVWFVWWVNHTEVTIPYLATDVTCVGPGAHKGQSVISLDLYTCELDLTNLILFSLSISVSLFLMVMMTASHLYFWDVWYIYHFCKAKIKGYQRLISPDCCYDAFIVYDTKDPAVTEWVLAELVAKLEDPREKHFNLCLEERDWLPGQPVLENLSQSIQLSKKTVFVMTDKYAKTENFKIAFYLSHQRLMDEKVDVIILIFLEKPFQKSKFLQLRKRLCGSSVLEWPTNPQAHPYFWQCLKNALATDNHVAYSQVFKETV
In short: as §1

Compound | IC50 (human TLR8) [µM] | IC50 (human TLR9) [µM] | IC50 (human TLR7) [µM]
Cc1cc(-c2[nH]c3ccc(N4CCNC4=O)cc3c2C(C)C)ccn1 [Example 8, 1-(3-isopropyl-2-(2-methylpyridin-4-yl)-1H-indol-5-yl)imidazolidin-2-one] | 0.025 | > 50 | 0.092
CC(C)c1c(-c2ccnc3[nH]ncc23)[nH]c2ccc(NC(=O)[C@@H]3CCNC3)cc12 [Example 9, (R)—N-(3-isopropyl-2-(1H-pyrazolo[3,4-b]pyridin-4-yl)-1H-indol-5-yl)pyrrolidine-3-carboxamide] | 0.07 | 5.66 | 0.817
CC(C)c1c(-c2ccnc3[nH]ncc23)[nH]c2ccc(NC(=O)[C@H]3CCNC3)cc12 [Example 10, (S)—N-(3-isopropyl-2-(1H-pyrazolo[3,4-b]pyridin-4-yl)-1H-indol-5-yl)pyrrolidine-3-carboxamide] | 0.096 | 7.72 | 0.073
COc1ccc(-c2[nH]c3ccc(NC(=O)CCCN)cc3c2C(C)C)cc1OC [Example 12, 4-amino-N-(2-(3,4-dimethoxyphenyl)-3-isopropyl-1H-indol-5-yl)butanamide] | 0.037 | 5.61 | 0.202
CCC[C@@H](N)C(=O)Nc1ccc2[nH]c(-c3ccc(OC)c(OC)c3)c(C(C)C)c2c1 [Example 14, (R)-2-amino-N-(2-(3,4-dimethoxyphenyl)-3-isopropyl-1H-indol-5-yl)pentanamide] | 0.067 | 7.83 | 0.347
COc1ccc(-c2[nH]c3ccc(NC(=O)C4CNCCO4)cc3c2C(C)C)cc1OC (stereo not drawn) [Example 15, N-(2-(3,4-dimethoxyphenyl)-3-isopropyl-1H-indol-5-yl)morpholine-2-carboxamide] | 0.0034 | 7.46 | 0.025
COc1ccc(-c2[nH]c3ccc(NC(=O)[C@H](N)CC(C)C)cc3c2C(C)C)cc1OC [Example 16, (R)-2-amino-N-(2-(3,4-dimethoxyphenyl)-3-isopropyl-1H-indol-5-yl)-4-methylpentanamide] | 0.047 | 5.76 | 2.07
CC[C@@H](C)[C@@H](N)C(=O)Nc1ccc2[nH]c(-c3ccc(OC)c(OC)c3)c(C(C)C)c2c1 [Example 17, (2R,3R)-2-amino-N-(2-(3,4-dimethoxyphenyl)-3-isopropyl-1H-indol-5-yl)-3-methylpentanamide] | 0.072 | 6 | 0.299
COc1ccc(-c2[nH]c3ccc(NC(=O)[C@@H](N)CCCN)cc3c2C(C)C)cc1OC [Example 20, (S)-2,5-diamino-N-(2-(3,4-dimethoxyphenyl)-3-isopropyl-1H-indol-5-yl)pentanamide] | 0.106 | > 50 | 0.125

Other lines, results leading:

IC50 (human TLR8) [µM] | IC50 (human TLR9) [µM] | IC50 (human TLR7) [µM] | Compound
0.081 | 9.21 | 0.067 | COc1ccc(-c2[nH]c3ccc(N4CCC(N(C)C)C4=O)cc3c2C(C)C)cc1OC (stereo not drawn) [Example 4, 1-(2-(3,4-dimethoxyphenyl)-3-isopropyl-1H-indol-5-yl)-3-(dimethylamino)pyrrolidin-2-one]
0.603 | 17.3 | 1.59 | Cc1cc(-c2[nH]c3ccc(N4CCC(OCCN(C)C)C4=O)cc3c2C(C)C)ccn1 (stereo not drawn) [Example 7, 3-(2-(dimethylamino)ethoxy)-1-(3-isopropyl-2-(2-methylpyridin-4-yl)-1H-indol-5-yl)pyrrolidin-2-one]
0.017 | 8.6 | 0.29 | COc1ccc(-c2[nH]c3ccc(NC(=O)CN)cc3c2C(C)C)cc1OC [Example 11, 2-amino-N-(2-(3,4-dimethoxyphenyl)-3-isopropyl-1H-indol-5-yl)acetamide]
0.0084 | 0.55 | 0.051 | COc1ccc(-c2[nH]c3ccc(NC(=O)C4CCNC4)cc3c2C(C)C)cc1OC (stereo not drawn) [Example 13, N-(2-(3,4-dimethoxyphenyl)-3-isopropyl-1H-indol-5-yl) pyrrolidine-3-carboxamide]
